Among the data in patent US9556143B2, “Metalloenzyme inhibitor compounds” (Viamet Pharmaceuticals, Inc., priority 2011, dated 2017) are pest or weed control values, retold here.

For this experiment, the system named is Puccinia recondita tritici = Puccinia triticina (PUCCRT). As to the kind of experiment: Fungicidal activity vs. wheat leaf rust. Type of experiment: in vivo, Puccinia recondita tritici on wheat (variety Yuma). As to conditions: % disease control @ 50 ppm, wheat seedlings sprayed, inoculated the following day, severity evaluated 7-9 days later, read-out: Puccinia Rating. From the text:
D. Evaluation of Fungicidal Activity Vs. Leaf Rust (Causal Agent Puccinia recondita tritici=Puccinia triticina; Bayer code PUCCRT). […] Each pot contained 3-8 seedlings. These plants were sprayed until wet with the formulated test compounds. The compounds were formulated at 50 ppm in 10 vol. % acetone plus 90 vol. % Triton X water (deionized water 99.99 wt %+0.01 wt % Triton X100), giving a “formulated test compound.” Formulated test compounds were applied to plants using a turn table sprayer fitted with two opposing air atomization nozzles which delivered approximately 1500 L/ha of spray volume. On the following day, the leaves were inoculated with an aqueous spore suspension of Puccinia recondita tritici and the plants were kept in high humidity overnight to permit spores to germinate and infect the leaf. The plants were then transferred to a greenhouse until disease developed on untreated control plants. Disease severity was evaluated 7-9 days later, depending on the speed of disease development. In each case of Table 3, the Puccinia rating scale is as follows: […]

For `OC(Cn1cnnn1)(c1ccc(F)cc1F)C(F)(F)c1ccccn1` (stereo not drawn) [2(−), 2-(2,4-Difluorophenyl)-1,1-difluoro-1-(pyridin-2-yl)-3-(1H-tetrazol-1-yl)propan-2-ol], the pest or weed control at 50 ppm is 80 to 100%.
The result for `OC(Cn1cnnn1)(c1ccc(F)cc1F)C(F)(F)c1ccc(Br)cn1` (stereo not drawn) [Compound 1, 1-(5-Bromopyridin-2-yl)-2-(2,4-difluorophenyl)-1,1-difluoro-3-(1H-tetrazol-1-yl)propan-2-ol] reads 80 to 100%.
`OC(Cn1cnnn1)(c1ccc(F)cc1F)C(F)(F)c1ccc(/C=C/COCC(F)(F)F)cn1` (stereo not drawn) [Compound 6, (E)-2-(2,4-Difluorophenyl)-1,1-difluoro-3-(1H-tetrazol-1-yl)-1-(5-(3-(2,2,2-trifluoroethoxy)prop-1-en-1-yl)pyridin-2-yl)propan-2-ol]: the pest or weed control at 50 ppm was less than 40%.
As to `OC(Cn1cnnn1)(c1ccc(F)cc1F)C(F)(F)c1ccc(F)cn1` (stereo not drawn) [Compound 10, 2-(2,4-Difluorophenyl)-1,1-difluoro-1-(5-fluoropyridin-2-yl)-3-(1H-tetrazol-1-yl)propan-2-ol], the pest or weed control at 50 ppm was in the range of 80 to 100%.
For `OC(Cn1cnnn1)(c1ccc(F)cc1F)C(F)(F)c1ccc(CC(F)(F)F)cn1` (stereo not drawn) [Compound 17, 2-(2,4-Difluorophenyl)-1,1-difluoro-3-(1H-tetrazol-1-yl)-1-(5-(2,2,2-trifluoroethyl)pyridin-2-yl)propan-2-ol] the value was 80 to 100%; for `OC(Cn1cnnn1)(c1ccc(F)cc1F)C(F)(F)c1ccc(C2CC2)cn1` (stereo not drawn) [Compound 18, 1-(5-Cyclopropylpyridin-2-yl)-2-(2,4-difluorophenyl)-1,1-difluoro-3-(1H-tetrazol-1-yl)propan-2-ol], 80 to 100%.
Regarding `OC(Cn1cnnn1)(c1ccc(Cl)cc1F)C(F)(F)c1ccc(Br)cn1` (stereo not drawn) [Compound 22, 1-(5-Bromopyridin-2-yl)-2-(4-chloro-2-fluorophenyl)-1,1-difluoro-3-(1H-tetrazol-1-yl)propan-2-ol], the pest or weed control at 50 ppm lay in the range of 80 to 100%.
Take `Cc1ccc(C(F)(F)C(O)(Cn2cnnn2)c2ccc(F)cc2F)nc1` (stereo not drawn) [Compound 25, 2-(2,4-Difluorophenyl)-1,1-difluoro-1-(5-methylpyridin-2-yl)-3-(1H-tetrazol-1-yl)propan-2-ol]: the pest or weed control at 50 ppm is 80 to 100%.
As to `OC(Cn1cnnn1)(c1ccc(Cl)cc1F)C(F)(F)c1ccc(Cl)cn1` (stereo not drawn) [Compound 26, 2-(4-Chloro-2-fluorophenyl)-1-(5-chloropyridin-2-yl)-1,1-difluoro-3-(1H-tetrazol-1-yl)propan-2-ol], the pest or weed control at 50 ppm was in the range of 80 to 100%.
Turning to `OC(Cn1cnnn1)(c1ccc(Cl)cc1F)C(F)(F)c1ccc(F)cn1` (stereo not drawn) [Compound 27, 2-(4-Cloro-2-fluorophenyl)-1,1-difluoro-1-(5-fluoropyridin-2-yl)-3-(1H-tetrazol-1-yl)propan-2-ol], the pest or weed control at 50 ppm lay in the range of 80 to 100%.
As to `OC(Cn1cnnn1)(c1ccc(Cl)cc1F)C(F)(F)c1ccc(-n2nccn2)cn1` (stereo not drawn) [Compound 28, 1-(5-(2H-1,2,3-Triazol-2-yl)pyridin-2-yl)-2-(4-chloro-2-fluorophenyl)-1,1-difluoro-3-(1H-tetrazol-1-yl)propan-2-ol], the pest or weed control at 50 ppm was in the range of 80 to 100%.
Turning to `OC(Cn1cncn1)(c1ccc(F)cc1F)C(F)(F)c1ccc(Cl)cn1` (stereo not drawn) [Compound 29, 1-(5-Chloropyridin-2-yl)-2-(2,4-difluorophenyl)-1,1-difluoro-3-(1H-1,2,4-triazol-1-yl)propan-2-ol], the pest or weed control at 50 ppm was 80 to 100%.
For `COc1ccc(-c2ccc(C(F)(F)C(O)(Cn3cnnn3)c3ccc(F)cc3F)nc2)s1` (stereo not drawn) [Compound 32, 2-(2,4-Difluorophenyl)-1,1-difluoro-1-(5-(5-methoxythiophen-2-yl)pyridin-2-yl)-3-(1H-tetrazol-1-yl)propan-2-ol] the value was 40 to 59%; for `OC(Cn1cnnn1)(c1ccc(F)cc1F)C(F)(F)c1ccc(-c2ccc(C(F)F)s2)cn1` (stereo not drawn) [Compound 33, 1-(5-(5-(Difluoromethyl)thiophen-2-yl)pyridin-2-yl)-2-(2,4-difluorophenyl)-1,1-difluoro-3-(1H-tetrazol-1-yl)propan-2-ol], 80 to 100%; for `OC(Cn1cnnn1)(c1ccc(F)cc1F)C(F)(F)c1ccc(-c2ccc(C(F)(F)F)s2)cn1` (stereo not drawn) [Compound 34, 2-(2,4-Difluorophenyl)-1,1-difluoro-3-(1H-tetrazol-1-yl)-1-(5-(5-(trifluoromethyl)thiophen-2-yl)pyridin-2-yl)propan-2-ol], 80 to 100%.
For the compound `OC(Cn1cnnn1)(c1ccc(F)cc1F)C(F)(F)c1ccc(-c2nccs2)cn1` (stereo not drawn) [Compound 38, 2-(2,4-Difluorophenyl)-1,1-difluoro-3-(1H-tetrazol-1-yl)-1-(5-(thiazol-2-yl)pyridin-2-yl)propan-2-ol], the pest or weed control at 50 ppm fell in the range of 80 to 100%.
As to `OC(Cn1cnnn1)(c1ccc(Cl)cc1F)C(F)(F)c1ccc(CC(F)(F)F)cn1` (stereo not drawn) [Compound 39, 2-(4-Chloro-2-fluorophenyl)-1,1-difluoro-3-(1H-tetrazol-1-yl)-1-(5-(2,2,2-trifluoroethyl)pyridin-2-yl)propan-2-ol], the pest or weed control at 50 ppm lay in the range of 80 to 100%.
With `OC(Cn1cnnn1)(c1ccc(Cl)cc1F)C(F)(F)c1ccc(C2CC2)cn1` (stereo not drawn) [Compound 40, 2-(4-Chloro-2-fluorophenyl)-1-(5-cyclopropylpyridin-2-yl)-1,1-difluoro-3-(1H-tetrazol-1-yl)propan-2-ol], the pest or weed control at 50 ppm was in the range of 80 to 100%.
Take `OC(Cn1cnnn1)(c1ccc(F)cc1F)C(F)(F)c1ccc(CCCOCC(F)(F)F)cn1` (stereo not drawn) [Compound 45, 2-(2,4-Difluorophenyl)-1,1-difluoro-3-(1H-tetrazol-1-yl)-1-(5-(3-(2,2,2-trifluoroethoxy)propyl)pyridin-2-yl)propan-2-ol]: the pest or weed control at 50 ppm was in the range of 80 to 100%.
On to `CCOC/C=C/c1ccc(C(F)(F)C(O)(Cn2cnnn2)c2ccc(F)cc2F)nc1` (stereo not drawn) [Compound 51, (E)-2-(2,4-Difluorophenyl)-1-(5-(3-ethoxyprop-1-en-1-yl)pyridin-2-yl)-1,1-difluoro-3-(1H-tetrazol-1-yl)propan-2-ol], for which the pest or weed control at 50 ppm was less than 40%.
As for `CCOC/C=C\c1ccc(C(F)(F)C(O)(Cn2cnnn2)c2ccc(F)cc2F)nc1` (stereo not drawn) [Compound 52, (Z)-2-(2,4-Difluorophenyl)-1-(5-(3-ethoxyprop-1-en-1-yl)pyridin-2-yl)-1,1-difluoro-3-(1H-tetrazol-1-yl)propan-2-ol], the pest or weed control at 50 ppm is less than 40%.
The result for `CCOCCCc1ccc(C(F)(F)C(O)(Cn2cnnn2)c2ccc(F)cc2F)nc1` (stereo not drawn) [Compound 53, 2-(2,4-Difluorophenyl)-1-(5-(3-ethoxypropyl)pyridin-2-yl)-1,1-difluoro-3-(1H-tetrazol-1-yl)propan-2-ol] reads 80 to 100%; that for `CC(C)OC/C=C/c1ccc(C(F)(F)C(O)(Cn2cnnn2)c2ccc(F)cc2F)nc1` (stereo not drawn) [Compound 54, (E)-2-(2,4-Difluorophenyl)-1,1-difluoro-1-(5-(3-isopropoxyprop-1-en-1-yl)pyridin-2-yl)-3-(1H-tetrazol-1-yl)propan-2-ol], less than 40%.
Turning to `OC(Cn1cnnn1)(c1ccc(F)cc1F)C(F)(F)c1ccc(CC2CC2)cn1` (stereo not drawn) [Compound 59, 1-(5-(Cyclopropylmethyl)pyridin-2-yl)-2-(2,4-difluorophenyl)-1,1-difluoro-3-(1H-tetrazol-1-yl)propan-2-ol], the pest or weed control at 50 ppm was in the range of 80 to 100%.
For `OC(Cn1cnnn1)(c1ccc(Cl)cc1F)C(F)(F)c1ccc(CC2CC2)cn1` (stereo not drawn) [Compound 60, 7-(4-Chloro-fluorophenyl)-1-(5-(cyclopropylmethyl)pyridin-2-yl)-1,1-difluoro-3-(1H-tetrazol-1-yl)propan-2-ol] the value was 80 to 100%; for `O=C(c1ccc(C(F)(F)F)cc1)c1ccc(C(F)(F)C(O)(Cn2cnnn2)c2ccc(F)cc2F)nc1` (stereo not drawn) [Compound 66, (6-(2-(2,4-Difluorophenyl)-1,1-difluoro-2-hydroxy-3-(1H-tetrazol-1-yl)propyl)pyridin-3-yl)(4-(trifluoromethyl)phenyl)methanone], 80 to 100%.
Turning to `O=C(c1ccc(Cl)cc1)c1ccc(C(F)(F)C(O)(Cn2cnnn2)c2ccc(F)cc2F)nc1` (stereo not drawn) [Compound 67, (4-Chlorophenyl)(6-(2-(2,4-difluorophenyl)-1,1-difluoro-2-hydroxy-3-(1H-tetrazol-1-yl)propyl)pyridin-3-yl)methanone], the pest or weed control at 50 ppm lay in the range of 80 to 100%.
`O=C(c1ccc(OCC(F)(F)F)cc1)c1ccc(C(F)(F)C(O)(Cn2cnnn2)c2ccc(F)cc2F)nc1` (stereo not drawn) [Compound 68, (6-(2-(2,4-Difluorophenyl)-1,1-difluoro-2-hydroxy-3-(1H-tetrazol-1-yl)propyl)pyridin-3-yl)(4-(2,2,2-trifluoroethoxy)phenyl)methanone]: the pest or weed control at 50 ppm was in the range of 80 to 100%.
On to `O=C(c1ccc(F)cc1)c1ccc(C(F)(F)C(O)(Cn2cnnn2)c2ccc(F)cc2F)nc1` (stereo not drawn) [Compound 69, (6-(2-(2,4-Difluorophenyl)-1,1-difluoro-2-hydroxy-3-(1H-tetrazol-1-yl)propyl)pyridin-3-yl)(4-fluorophenyl)methanone], for which the pest or weed control at 50 ppm lay in the range of 80 to 100%.
`O=C(c1ccc(C(F)(F)C(O)(Cn2cnnn2)c2ccc(F)cc2F)nc1)c1ccc(Cl)c(F)c1` (stereo not drawn) [Compound 71, (4-Chloro-3-fluorophenyl)(6-(2-(2,4-difluorophenyl)-1,1-difluoro-2-hydroxy-3-(1H-tetrazol-1-yl)propyl)pyridin-3-yl)methanone]: the pest or weed control at 50 ppm was 80 to 100%.
